Reference: patent publication US5723468A, “6-membered ring fused imidazoles as muscarinic agents” (priority 1996, dated 1998)

Key:
[1] = biological target: T1, M1 acetylcholine receptors (ml receptors in CHO cells) (Homo sapiens, UniProt P11229); assay: stimulation of phosphoinositide (PI) hydrolysis in transfected CHO cells; assay type: cell-based; conditions: 1 h, read-out: % PI Hydrolysis ml receptors in CHO cells 30 × Ki (μM), carb = 100%
T1 sequence (P11229 1-460): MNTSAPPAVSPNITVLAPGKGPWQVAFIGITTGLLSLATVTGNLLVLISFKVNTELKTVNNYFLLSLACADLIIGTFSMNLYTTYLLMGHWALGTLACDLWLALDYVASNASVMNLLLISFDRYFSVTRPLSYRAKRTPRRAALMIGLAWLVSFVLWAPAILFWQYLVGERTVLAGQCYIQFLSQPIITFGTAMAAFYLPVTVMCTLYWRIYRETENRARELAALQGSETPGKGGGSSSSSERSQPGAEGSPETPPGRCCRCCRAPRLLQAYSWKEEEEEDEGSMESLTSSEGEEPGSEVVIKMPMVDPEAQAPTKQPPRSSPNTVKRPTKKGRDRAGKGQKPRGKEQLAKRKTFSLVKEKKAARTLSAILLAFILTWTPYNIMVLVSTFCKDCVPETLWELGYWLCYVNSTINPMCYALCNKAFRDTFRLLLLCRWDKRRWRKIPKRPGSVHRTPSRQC

[2] = system: mild to moderate Alzheimer's Disease; conditions: cited from earlier work; for improvement in memory: patients with mild to moderate Alzheimer's Disease

In the case of `Cn1cnc2c(O[C@@H]3CN4CC[C@H]3C4)nccc21` (relative stereo) [Example 1, endo-4-(1-Aza-bicyclo[2.2.1]hept-3-yloxy)-1-methyl-1H-imidazol[4,5-c]pyridine], the Emax [1] is reported as 25%.

`Cn1cnc2c(O[C@@H]3CN4CC[C@H]3C4)nccc21` (single isomer, unassigned) [Example 3, (-)-endo-4-(1-Aza-bicyclo[2.2.1]hept-3-yloxy)-1methyl-1H-imidazol[4,5-c]pyridine] showed an Emax [1] of 20.6%.

Molecule `c1ccc(Cn2cnc3c(OC4CN5CCC4CC5)nccc32)cc1` (single isomer, unassigned; (-)) [Example 7, (-)-3-(1-Benzyl-1H-imidazol[4,5-c]pyridin-4-yloxy)-1-aza-bicyclo[2,2,2]octane] has an Emax [1] of 18.4%.

In the case of `c1ccc(Cn2cnc3c(OC4CN5CCC4CC5)nccc32)cc1` (stereo not shown) [Example 5, 3-(1-Benzyl-1H-imidazo[4,5-c]pyridin-4-yloxy)-1-aza-bicyclo[2,2,2]octane], the Emax [1] is reported as 6.8%.

For `COC(=O)C1=CCCN(C)C1` [arecoline], the improvement in memory [2] is given as “demonstrated memory improvement in patients with mild to moderate Alzheimer's Disease”.

For `Nc1c2c(nc3ccccc13)CCCC2` [tacrine], the adverse side effects ([2]; especially at the higher doses where it is most effective) is listed as “adverse side effects especially at the higher doses” and the improvement in memory [2] is listed as “improvement in memory can be shown in patients with mild to moderate Alzheimer's Disease”.
